{"source": "patent US20260053767A1", "about": "“Hepatoprotective Compositions And Methods” (Jemyll, Ltd., priority 2022, published 2026)", "origin": "cited, not measured here", "settings": "reported: adipose tissue inflammation, insulin resistance, non-alcoholic fatty liver disease; cited from earlier work"}
{"smiles": "CCCCCCCCCCCC(=O)O", "note": "[lauric acid]", "values": [{"measurement": "effects on the liver and other tissues", "result": "significant adverse effects on the liver and other tissues"}]}
